Assay results published in paper PMC6273138, “Inhibitory Effects of Aschantin on Cytochrome P450 and Uridine 5′-diphospho-glucuronosyltransferase Enzyme Activities in Human Liver Microsomes” (Molecules, 2016).
Read-outs that look alike come from different tables or passages of the source.

Tests used:
CYP2C19 = CYP2C19 (Homo sapiens, UniProt P33261); experiment: Mechanism-based (time- and concentration-dependent) inactivation of CYP2C19 in human liver microsomes; type: in vitro ADME; conditions: CYP2C19-mediated [S]-mephenytoin 4′-hydroxylation
CYP2C19, sequence (P33261 whole entry): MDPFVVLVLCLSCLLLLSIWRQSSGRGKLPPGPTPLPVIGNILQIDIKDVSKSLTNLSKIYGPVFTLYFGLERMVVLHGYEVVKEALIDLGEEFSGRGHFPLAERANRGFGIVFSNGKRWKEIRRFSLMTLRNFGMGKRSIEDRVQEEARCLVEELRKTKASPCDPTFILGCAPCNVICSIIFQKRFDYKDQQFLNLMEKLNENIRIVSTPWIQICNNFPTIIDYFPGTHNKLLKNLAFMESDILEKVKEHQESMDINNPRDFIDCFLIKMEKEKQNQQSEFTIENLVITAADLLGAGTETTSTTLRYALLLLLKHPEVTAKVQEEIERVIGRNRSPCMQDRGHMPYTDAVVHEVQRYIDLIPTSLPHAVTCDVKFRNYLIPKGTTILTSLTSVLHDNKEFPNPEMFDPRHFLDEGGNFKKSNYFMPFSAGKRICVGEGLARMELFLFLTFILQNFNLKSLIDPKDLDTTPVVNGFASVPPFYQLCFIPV
Experimental: (§1) The microsomes (1 mg/mL) were pre-incubated with various concentrations of aschantin in 50 mM potassium phosphate buffer (pH 7.4) in the presence of NADPH. Aliquots (10 µL) of the incubated mixtures were withdrawn at 5, 10, 15, and 20 min after incubation commenced and added to other tubes containing the CYP substrates (2 µM amodiaquine for CYP2C8, 10 µM diclofenac for CYP2C9, 100 µM [S]-mephenytoin for CYP2C19, or 2 µM midazolam for CYP3A4), 1 mM NADPH, 50 mM potassium phosphate buffer (pH 7.4), and 10 mM MgCl2, in 90 µL reaction mixtures. […] Aliquots (5 µL) of the diluted supernatants were analyzed by LC-MS/MS, as described above.

CYP3A4 [1] = biological target: T1, CYP3A4 (Homo sapiens, UniProt P08684); experiment: Mechanism-based (time- and concentration-dependent) inactivation of CYP3A4 in human liver microsomes; type: in vitro ADME; conditions: CYP3A4-mediated midazolam 1′-hydroxylation
T1 sequence (P08684 2-503): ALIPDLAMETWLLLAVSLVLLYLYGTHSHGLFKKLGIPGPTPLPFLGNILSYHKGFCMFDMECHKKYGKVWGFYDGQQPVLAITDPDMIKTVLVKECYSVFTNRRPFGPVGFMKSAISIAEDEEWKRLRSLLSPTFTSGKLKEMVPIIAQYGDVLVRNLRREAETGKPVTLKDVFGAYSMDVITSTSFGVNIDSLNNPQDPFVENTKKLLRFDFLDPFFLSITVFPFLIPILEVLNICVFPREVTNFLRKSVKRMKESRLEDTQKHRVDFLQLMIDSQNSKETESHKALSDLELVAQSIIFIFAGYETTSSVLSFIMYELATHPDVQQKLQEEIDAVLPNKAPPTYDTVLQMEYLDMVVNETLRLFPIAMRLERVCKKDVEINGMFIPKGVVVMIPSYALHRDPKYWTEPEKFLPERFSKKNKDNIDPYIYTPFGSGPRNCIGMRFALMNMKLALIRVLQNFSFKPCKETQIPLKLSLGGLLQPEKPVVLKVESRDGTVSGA
Experimental: as §1

UGT1A6 = biological target: T2, UGT1A6 (Homo sapiens, UniProt P19224); experiment: UGT1A6-catalyzed N-acetylserotonin glucuronidation inhibition in pooled human liver microsomes; type: in vitro ADME; conditions: 1 µM N-acetylserotonin
T2 construct: using pooled human liver microsomes incubated with the cocktail of UGT substrates; tissue Corning Life Sciences 452161; host or cells: pooled human liver microsomes
T2 sequence (P19224 27-532): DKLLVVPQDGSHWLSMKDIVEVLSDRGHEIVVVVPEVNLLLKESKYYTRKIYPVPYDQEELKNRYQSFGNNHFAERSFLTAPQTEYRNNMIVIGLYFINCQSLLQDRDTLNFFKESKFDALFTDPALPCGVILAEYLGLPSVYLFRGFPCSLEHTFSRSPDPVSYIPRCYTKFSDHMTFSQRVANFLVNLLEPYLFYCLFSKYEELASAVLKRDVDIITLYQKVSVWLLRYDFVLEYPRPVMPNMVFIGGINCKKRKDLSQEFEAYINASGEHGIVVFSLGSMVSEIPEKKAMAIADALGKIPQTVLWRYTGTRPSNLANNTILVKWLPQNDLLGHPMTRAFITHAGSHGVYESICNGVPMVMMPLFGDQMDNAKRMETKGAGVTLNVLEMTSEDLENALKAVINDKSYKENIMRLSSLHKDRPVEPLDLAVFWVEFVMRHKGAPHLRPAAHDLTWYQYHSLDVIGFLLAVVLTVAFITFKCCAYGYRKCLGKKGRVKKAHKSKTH
Experimental: The extents of aschantin on UGT1A1, UGT1A3, UGT1A4, UGT1A6, UGT1A9, and UGT2B7 were evaluated by LC-MS/MS, using pooled human liver microsomes incubated with the cocktail of UGT substrates. The method was modified from that of Joo et al..
The metabolites formed from the six UGT cocktail substrates were simultaneously measured using the LC-MS/MS method. […] The mass spectrometer was equipped with an ESI source and was operated in both positive and negative ion modes. […] Each metabolite was quantified via SRM in the negative ion (chenodeoxycholic acid 24-acyl-β-glucuronide, 567.2 > 391.0; mycophenolic acid glucuronide, 495.2 > 318.9; propofol glucuronide, 353.3 > 177.1) and positive ion (SN-38 glucuronide, 569.0 > 393.0; trifluoperazine glucuronide, 584.2 > 408.1; N-acetylserotonin-β-D-glucuronide, 395.2 > 219.0; naloxone 3-β-D-glucuronide, 504.0 > 310.0; meloxicam, 352.0 > 115.1) modes.

CYP1A2 = biological target: T3, CYP1A2 (Homo sapiens, UniProt P05177); experiment: CYP1A2-catalyzed phenacetin O-de-ethylase inhibition in pooled human liver microsomes
T3 sequence (P05177 1-516): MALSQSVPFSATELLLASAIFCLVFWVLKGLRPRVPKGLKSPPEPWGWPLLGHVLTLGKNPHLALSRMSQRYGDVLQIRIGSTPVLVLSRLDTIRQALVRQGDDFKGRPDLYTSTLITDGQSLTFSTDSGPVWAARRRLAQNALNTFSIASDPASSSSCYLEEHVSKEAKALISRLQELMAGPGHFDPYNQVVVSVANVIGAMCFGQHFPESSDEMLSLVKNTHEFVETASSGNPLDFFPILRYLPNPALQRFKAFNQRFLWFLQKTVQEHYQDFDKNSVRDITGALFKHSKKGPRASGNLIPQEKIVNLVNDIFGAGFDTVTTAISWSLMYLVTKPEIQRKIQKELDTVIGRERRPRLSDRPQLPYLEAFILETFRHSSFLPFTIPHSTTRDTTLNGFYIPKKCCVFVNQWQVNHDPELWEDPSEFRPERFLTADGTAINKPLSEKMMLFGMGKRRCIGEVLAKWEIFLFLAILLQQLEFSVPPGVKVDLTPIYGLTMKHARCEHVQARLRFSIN
Experimental: (§2) The degrees of inhibition (the IC50 values) of aschantin toward CYP1A2, CYP2A6, CYP2C8, CYP2C9, CYP2C19, CYP2D6, and CYP3A4 were evaluated using pooled human liver microsomes employing a cocktail of CYP substrates and liquid chromatography-tandem mass spectrometry (LC-MS/MS). […] After 3 min pre-incubation at 37 °C, the reactions were initiated by addition of NADPH and incubation proceeded for 15 min at 37 °C in a shaking water bath. The reaction was stopped by placing the tubes on ice and adding 100 µL amounts of ice-cold methanol containing internal standards (^13C2,^15N-acetaminophen for acetaminophen and N-desethylamodiaquine; d9-1′-hydroxybufuralol for 4′-hydroxydiclofenac; and 7-hydroxycoumarin, 4′-hydroxy-mephenytoin, 1′-hydroxybufuralol, and 1′-hydroxymidazolam). Then the incubation mixtures were centrifuged at 13,000× g for 4 min at 4 °C. All assays were performed in triplicate and the average values were used in calculations.
(§3) To this end, we employed a tandem mass spectrometer (TSQ Quantum Access, Thermo Scientific, San Jose, CA, USA) coupled to a Nanospace SI-2 LC system (Shiseido, Tokyo, Japan). The column and autosampler temperatures were 50 °C and 6 °C, respectively. The mass spectrometer was equipped with an electrospray ionization (ESI) source and was operated in positive ion mode. The ESI source settings for metabolite ionization were as follows: capillary voltage, 4200 V; vaporizer temperature, 350 °C; capillary temperature 330 °C; sheath gas pressure, 35 psi; and auxiliary gas pressure, 15 psi. […] Analytical data were processed using Xcalibur® software (Thermo Scientific).
The apparent kinetic inhibitory potentials (the Ki values) were estimated from the fitted curves using Enzyme Kinetics version 1.1 (Systat Software Inc.).

CYP2D6 = CYP2D6 (Homo sapiens, UniProt P10635); experiment: CYP2D6-catalyzed bufuralol 1′-hydroxylase inhibition in pooled human liver microsomes
CYP2D6, sequence (P10635 whole entry): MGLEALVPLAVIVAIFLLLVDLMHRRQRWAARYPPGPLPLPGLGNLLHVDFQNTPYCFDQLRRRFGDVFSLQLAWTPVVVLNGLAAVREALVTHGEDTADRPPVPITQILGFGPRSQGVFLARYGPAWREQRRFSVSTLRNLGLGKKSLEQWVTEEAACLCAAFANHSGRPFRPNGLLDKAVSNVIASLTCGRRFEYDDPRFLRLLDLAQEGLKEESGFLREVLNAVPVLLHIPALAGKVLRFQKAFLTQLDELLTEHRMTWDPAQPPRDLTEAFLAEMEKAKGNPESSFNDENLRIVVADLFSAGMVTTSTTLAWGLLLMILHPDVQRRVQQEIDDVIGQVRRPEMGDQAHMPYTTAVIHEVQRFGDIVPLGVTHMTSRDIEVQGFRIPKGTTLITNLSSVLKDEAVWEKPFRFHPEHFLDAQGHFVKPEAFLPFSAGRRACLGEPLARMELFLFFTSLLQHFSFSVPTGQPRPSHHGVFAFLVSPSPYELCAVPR
Experimental: as §2, §3

CYP3A4 [2] = biological target: T1, CYP3A4; experiment: CYP3A4-catalyzed midazolam 1′-hydroxylase inhibition in pooled human liver microsomes; conditions: for IC50: CYP3A4 midazolam 1′-hydroxylase, 2.5 µM midazolam
Experimental: as §2, §3

[3] = aschantin at 100 µM, human liver microsomes

Ki (CYP2C19; read-out: Ki (apparent)): 5.8 µM
kinact (CYP2C19; pH 7.4, probe [S]-mephenytoin (100 µM)): 0.0008 s⁻¹
Ki (CYP3A4 [1]; read-out: Ki (apparent)): 12.6 µM
kinact (CYP3A4 [1]; pH 7.4, probe midazolam (2 µM)): 0.00103 s⁻¹
IC50 (UGT1A6): 144 µM
IC50 (CYP1A2): > 100 µM
inhibition of CYP1A2-mediated phenacetin O-de-ethylation (CYP1A2; [3]): negligibly inhibited
IC50 (CYP1A2; read-out: IC50 With Pre-incubation, CYP1A2 phenacetin O-de-ethylase, 50 µM phenacetin, 30 min pre-incubation with microsomes and NADPH): > 100 µM
IC50 (CYP2D6): > 100 µM
inhibition of CYP2D6-mediated bufuralol 1′-hydroxylation (CYP2D6; [3]): negligibly inhibited
IC50 (CYP2D6; read-out: IC50 With Pre-incubation, CYP2D6 bufuralol 1′-hydroxylase, 5.0 µM bufuralol, 30 min pre-incubation with microsomes and NADPH): > 100 µM
IC50 (CYP3A4 [2]; IC50 No Pre-incubation, pooled human liver microsomes, no pre-incubation): 57.5 µM
IC50 (CYP3A4 [2]; IC50 With Pre-incubation, 30 min pre-incubation with microsomes and NADPH): 14.4 µM
IC50 shift at 0.5 h (CYP3A4 [2]; human, pooled human liver microsomes, pH 7.4, probe midazolam (2.5 µM), 1′-hydroxylation): > 2.5
Compound: COc1cc([C@H]2OC[C@H]3[C@@H]2CO[C@@H]3c2ccc3c(c2)OCO3)cc(OC)c1OC [Aschantin]
